Patent publication US11168089B2, “Fused pyrimidine derivatives as A2A / A2B inhibitors” (Incyte Corporation, priority 2018, dated 2021)

How the values were obtained:
Adenosine A2A receptor = Adenosine A2A receptor (Homo sapiens (Human), UniProt P29274); experiment: A2A Tag-Lite HTRF assay; assay type: binding; conditions: Tag-Lite Adenosine A2A labeled cells, displacement of A2A Receptor Red antagonist fluorescent ligand 12.5 nM; read-out: A2A_Ki
Excerpt: Example C. A2A Tag-Lite® HTRF Assay
The final concentration of DMSO was 1%.

[1] = biological target: human adenosine A2B receptor (Homo sapiens (Human), UniProt P29275); experiment: Adenosine A2B Receptor Cyclic AMP GS Assay; assay type: cell-based; conditions: HEK-293 cells expressing human A2B receptor, agonist NECA 12 nM, cAMP accumulation; read-out: A2B_cAMP_EC50
Protocol: Example B. Adenosine A2B Receptor Cyclic AMP GS Assay
Stably transfected HEK-293 cells expressing the human adenosine A2B receptor (Perkin Elmer) were maintained in MEM culture medium with 10% FBS and 100 μg/mL Geneticin (Life Technologies). 18 to 24 hours prior to assay, geneticin was removed from culture. The cisbio cAMP-GS Dynamic kit utilizing the FRET (Fluorescence Resonance Energy Transfer) technology was used to measure cAMP accumulation in the cells. Compounds of the present disclosure at an appropriate concentration were mixed with 10000 cells/well in white 96 well half area plates (Perkin Elmer) for 30 min at room temperature gently shaking. Agonist, NECA (R&D Technologies) at 12 nM was added to each well for 60 min at room temperature gently shaking. Detection reagents, d2-labeled cAMP (acceptor) and anti-cAMP cryptate (donor) were added to each well for 60 min at RT gently shaking. Plates were read on Pherastar (BMG Labtech), fluorescence ratio 665/620 was calculated and EC50 determination was performed by fitting the curve of percent of control versus the log of the compound concentration using GraphPad Prism.

Adenosine A2A receptor, sequence (P29274 whole entry): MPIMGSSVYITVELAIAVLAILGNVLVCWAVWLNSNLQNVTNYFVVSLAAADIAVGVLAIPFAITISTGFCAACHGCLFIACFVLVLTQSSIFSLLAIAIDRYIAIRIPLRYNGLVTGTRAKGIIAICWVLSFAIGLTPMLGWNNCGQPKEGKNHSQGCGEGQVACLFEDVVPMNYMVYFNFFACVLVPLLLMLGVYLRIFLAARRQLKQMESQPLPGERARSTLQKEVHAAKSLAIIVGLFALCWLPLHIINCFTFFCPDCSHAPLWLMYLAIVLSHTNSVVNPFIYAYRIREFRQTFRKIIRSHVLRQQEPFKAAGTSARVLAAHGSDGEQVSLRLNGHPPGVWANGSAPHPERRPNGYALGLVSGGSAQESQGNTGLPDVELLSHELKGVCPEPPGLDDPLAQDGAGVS
human adenosine A2B receptor, sequence (P29275 whole entry): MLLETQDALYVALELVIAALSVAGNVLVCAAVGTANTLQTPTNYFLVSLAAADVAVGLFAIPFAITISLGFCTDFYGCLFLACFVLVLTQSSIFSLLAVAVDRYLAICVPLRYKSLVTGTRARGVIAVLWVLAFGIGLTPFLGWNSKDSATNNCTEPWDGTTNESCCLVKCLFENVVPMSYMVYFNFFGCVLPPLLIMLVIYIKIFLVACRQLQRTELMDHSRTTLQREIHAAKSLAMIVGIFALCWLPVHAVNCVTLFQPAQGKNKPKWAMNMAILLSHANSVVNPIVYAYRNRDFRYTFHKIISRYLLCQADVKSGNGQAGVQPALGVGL

Ki (Adenosine A2A receptor)	EC50 [1]	Compound
< 10 nM	10 to 100 nM	CN1CCC(NCc2cccc(F)c2C(O)c2nc3cc(-c4cccc(C#N)c4F)nc(N)n3n2)C1=O (single isomer, unassigned) [Example 16, 3-(5-Amino-2-((2-fluoro-6-(((1-methyl-2-oxopyrrolidin-3-yl)amino)methyl)phenyl)(hydroxy)methyl)-[1,2,4]triazolo[1,5-c]pyrimidin-7-yl)-2-fluorobenzonitrile]
< 10 nM	100 to 1000 nM	Cn1cc(-c2cccc(Cc3nc4cc(-c5cccc(C#N)c5)nc(N)n4n3)c2)cn1 [Example 5, 3-(5-Amino-2-(3-(1-methyl-1H-pyrazol-4-yl)benzyl)-[1,2,4]triazolo[1,5-c]pyrimidin-7-yl)benzonitrile]
< 10 nM	10 to 100 nM	Cn1ccnc1Cc1nc2cc(-c3cccc(C#N)c3)nc(N)n2n1 [Example 7, 3-(5-Amino-2-((1-methyl-1H-imidazol-2-yl)methyl)-[1,2,4]triazolo[1,5-c]pyrimidin-7-yl)benzonitrile]
< 10 nM	10 to 100 nM	Cc1c(C#N)cccc1-c1cc2nc(C(O)c3c(F)cccc3F)nn2c(N)n1 (stereo not shown) [Example 13, 3-(5-Amino-2-((2,6-difluorophenyl)(hydroxy)methyl)-[1,2,4]triazolo[1,5-c]pyrimidin-7-yl)-2-methylbenzonitrile]
< 10 nM	< 10 nM	N#Cc1cccc(-c2cc3nc(C(O)c4c(F)cccc4F)nn3c(N)n2)c1F (stereo not shown) [Example 14, 3-(5-Amino-2-((2,6-difluorophenyl)(hydroxy)methyl)-[1,2,4]triazolo[1,5-c]pyrimidin-7-yl)-2-fluorobenzonitrile]
< 10 nM	< 10 nM	N#Cc1cccc(-c2nc(N)n3nc(C(O)c4c(F)cccc4F)nc3c2C#N)c1F (stereo not shown) [Example 15, 5-Amino-7-(3-cyano-2-fluorophenyl)-2-((2,6-difluorophenyl)(hydroxy)methyl)-[1,2,4]triazolo[1,5-c]pyrimidine-8-carbonitrile]
< 10 nM	10 to 100 nM	CN1CCC2(CN(Cc3cccc(F)c3C(O)c3nc4cc(-c5cccc(C#N)c5F)nc(N)n4n3)C2)C1=O (stereo not shown) [Example 17, 3-(5-Amino-2-((2-fluoro-6-((6-methyl-5-oxo-2,6-diazaspiro[3.4]octan-2-yl)methyl)phenyl)(hydroxy)methyl)-[1,2,4]triazolo[1,5-c]pyrimidin-7-yl)-2-fluorobenzonitrile]
< 10 nM	10 to 100 nM	N#Cc1cccc(-c2cc3nc(Cc4c(F)cccc4CNC4CCN(CC(=O)O)C4=O)nn3c(N)n2)c1F (stereo not shown) [Example 19, 2-(3-((2-((5-Amino-7-(3-cyano-2-fluorophenyl)-[1,2,4]triazolo[1,5-c]pyrimidin-2-yl)methyl)-3-fluorobenzyl)amino)-2-oxopyrrolidin-1-yl)acetic acid]
< 10 nM	10 to 100 nM	N#Cc1cccc(-c2cc3nc(Cc4c(F)cccc4CN4CCC(c5nn[nH]n5)C4)nn3c(N)n2)c1F (stereo not shown) [Example 23, 3-(2-(2-((3-(2H-Tetrazol-5-yl)pyrrolidin-1-yl)methyl)-6-fluorobenzyl)-5-amino-[1,2,4]triazolo[1,5-c]pyrimidin-7-yl)-2-fluorobenzonitrile]

The remaining lines, values behind:

Compound	Ki (Adenosine A2A receptor)	EC50 [1]
N#Cc1cccc(-c2cc3nc(C(O)c4ccccc4)nn3c(N)n2)c1 (stereo not shown) [Example 1, 3-(5-Amino-2-(hydroxy(phenyl)methyl)-[1,2,4]triazolo[1,5-c]pyrimidin-7-yl)benzonitrile]	< 10 nM	< 10 nM
N#Cc1cccc(-c2cc3nc(Cc4ccccc4)nn3c(N)n2)c1 [Example 2, 3-(5-Amino-2-benzyl-[1,2,4]triazolo[1,5-c]pyrimidin-7-yl)benzonitrile]	< 10 nM	< 10 nM
N#Cc1cccc(-c2cc3nc(Cc4ccccn4)nn3c(N)n2)c1 [Example 3, 3-(5-Amino-2-(pyridin-2-ylmethyl)-[1,2,4]triazolo[1,5-c]pyrimidin-7-yl)benzonitrile]	< 10 nM	< 10 nM
N#Cc1cccc(-c2cc3nc(CC4CCCCC4)nn3c(N)n2)c1 [Example 4, 3-(5-Amino-2-(cyclohexylmethyl)-[1,2,4]triazolo[1,5-c]pyrimidin-7-yl)benzonitrile]	< 10 nM	100 to 1000 nM
N#Cc1cccc(-c2cc3nc(CN4CCCC4=O)nn3c(N)n2)c1 [Example 6, 3-(5-Amino-2-((2-oxopyrrolidin-1-yl)methyl)-[1,2,4]triazolo[1,5-c]pyrimidin-7-yl)benzonitrile]	< 10 nM	100 to 1000 nM
N#Cc1cccc(-c2cc3nc(C(N)c4ccccc4)nn3c(N)n2)c1 (stereo not shown) [Example 8, 3-(5-Amino-2-(amino(phenyl)methyl)-[1,2,4]triazolo[1,5-c]pyrimidin-7-yl)benzonitrile]	< 10 nM	100 to 1000 nM
N#Cc1cccc(-c2nc(N)n3nc(Cc4ccccc4)nc3c2CO)c1 [Example 9, 3-(5-Amino-2-benzyl-8-(hydroxymethyl)-[1,2,4]triazolo[1,5-c]pyrimidin-7-yl)benzonitrile]	< 10 nM	10 to 100 nM
N#Cc1cccc(-c2cc3nc(Nc4ccccc4)nn3c(N)n2)c1 [Example 10, 3-(5-Amino-2-(phenylamino)-[1,2,4]triazolo[1,5-c]pyrimidin-7-yl)benzonitrile]	< 10 nM	100 to 1000 nM
N#Cc1cccc(-c2cc3nc(Cc4ccccc4)cn3c(N)n2)c1 [Example 11, 3-(5-Amino-2-benzylimidazo[1,2-c]pyrimidin-7-yl)benzonitrile]	< 10 nM	10 to 100 nM
CCNC(=O)c1nc2cc(-c3cccc(C#N)c3)nc(N)n2n1 [Example 12, 5-Amino-7-(3-cyanophenyl)-N-ethyl-[1,2,4]triazolo[1,5-c]pyrimidine-2-carboxamide]	< 10 nM	> 1000 nM
CCN(Cc1cccc(F)c1C(O)c1nc2cc(-c3cccc(C#N)c3F)nc(N)n2n1)[C@H]1CCNC1=O (stereo partly drawn) [Example 18, 3-(5-Amino-2-((2-((ethyl((S)-2-oxopyrrolidin-3-yl)amino)methyl)-6-fluorophenyl)(hydroxy)methyl)-[1,2,4]triazolo[1,5-c]pyrimidin-7-yl)-2-fluorobenzonitrile]	< 10 nM	< 10 nM
N#Cc1cccc(-c2cc3nc(Cc4c(F)cccc4CN[C@@H]4CCOC4=O)nn3c(N)n2)c1F [Example 20, (R)-3-(5-Amino-2-(2-fluoro-6-(((2-oxotetrahydrofuran-3-yl)amino)methyl)benzyl)-[1,2,4]triazolo[1,5-c]pyrimidin-7-yl)-2-fluorobenzonitrile]	< 10 nM	< 10 nM
N#Cc1cccc(-c2cc3nc(Cc4c(F)cccc4CN[C@@H]4CCNC4=O)nn3c(N)n2)c1F [Example 21, (R)-3-(5-Amino-2-(2-fluoro-6-(((2-oxopyrrolidin-3-yl)amino)methyl)benzyl)-[1,2,4]triazolo[1,5-c]pyrimidin-7-yl)-2-fluorobenzonitrile]	< 10 nM	< 10 nM
N#Cc1cccc(-c2cc3nc(Cc4c(F)cccc4CN[C@H]4CCNC4=O)nn3c(N)n2)c1F [Example 22, (S)-3-(5-Amino-2-(2-fluoro-6-(((2-oxopyrrolidin-3-yl)amino)methyl)benzyl)-[1,2,4]triazolo[1,5-c]pyrimidin-7-yl)-2-fluorobenzonitrile]	< 10 nM	< 10 nM
